Experiments:
calf thymus DNA [1] = assay: Equilibrium dialysis dark binding (association constant); details: for Ka: 4° C., five days, dark, isopsoralen:DNA base pair 1:15
Experimental: Equilibrium Dialysis was used to determine the association (“dark binding”) constants of AMIP, AMDMIP and MIP with calf thymus DNA. The tritium labelled isopsoralens were used for the experiment. The method was a modification of that of Isaacs et al. Biochemistry 16, 1058-1066 (1977).
Spectrapor 2 dialysis tubing (Spectrum) was pre-treated by boiling in saturated sodium bicarbonate then rinsed thoroughly with double distilled water. Calf thymus DNA (Sigma) was prepared at a concentration of 50 μg/ml in 1×TE. The samples were prepared by placing 1.0 ml of the DNA solution inside the bag and using enough isopsoralen to provide an isopsoralen:DNA base pair ratio of 1:15. The samples were prepared with the tritiated isopsoralen (“Drug”) placed either inside or outside of the dialysis bag (each sample was placed in a scintillation vial containing a small magnetic stir bar). The samples were stirred at 4° C. for five days in the dark. After this period the bags were removed, opened, and the radioactivity inside and outside the bag determined by scintillation counting. The concentration of the DNA was determined by measuring optical density at 260 nm. The […] constant (Ka) was calculated from this information (Table 9). Preparing the samples in duplicate with the isopsoralen both inside and outside the dialysis bag provided a check that the system had come to equilibrium at the end of the dialysis period (the amount of isopsoralen inside and outside the bag at equilibrium should be, and was, the same in both cases).
The association constant, Ka is defined here as [formula]
for the reaction P+DNA P:DNA where P=free drug in solution, DNA=DNA binding site for the drug, and P:DNA=drug associated with the DNA. The following summarizes the Ka values determined for the compounds: […]

calf thymus DNA [2] = assay: Covalent photobinding to calf thymus DNA (Example 38); format: binding; details: for actual concentration obtained empirically: nominal 100 μg/ml in calf thymus DNA/1×TE, counted after sitting overnight at room temperature
Experimental: FIG. 17 can again be referred to as a flow chart schematically showing the manner in which covalent binding was measured for the compounds synthesized by the methods of the present invention. ^3H-AMIP (3.1×10^5 cpm/μg), ^3H-AMDMIP (2.2×10^5 cpm/μg), and ^3H-MIP (2.1×10^5 cpm/μg) were added to 300 μl of calf thymus DNA (Sigma) in 1×TE buffer. All of the isopsoralen compounds were added at a nominal concentration of 100 μg/ml. However, actual concentrations obtained empirically (counted after sitting overnight at room temperature) were: ^3H-AMIP (105 μg/ml), ^3H-AMDMIP (115 μg/ml), and ^3H-MIP (<10 μg/ml).
To assess binding, three samples were prepared for each compound; two were irradiated (15 minutes at 25° C. with the CE-I device) while one was unirradiated as a control. Following irradiation, the samples were extracted four times with CHCl3 then precipitated twice. The final pellet was brought up in 2 ml of 1×TE buffer and resuspended by shaking at 40° C. overnight. 50 μl of each sample was then diluted to 0.5 mls with H2O. The concentration of DNA was determined by UV absorption (A260) and the amount of covalently bound isopsoralen (“adduct”) was determined by scintillation counting (3×100 μl aliquots). From these numbers, the following binding ratios (adducts: DNA base pair) were determined: […]

Taq I DNA polymerase = assay: Primer extension on site-specific monoadducted 71-mer, Taq polymerase; format: biochemical, Thermus aquaticus; details: for Taq polymerase extension on 71-mer monoadduct template: 55° C., single extension
Experimental: In this experiment, monoadducted 71-mers (as well as unmodified 71-mers) were used in template-dependent enzymatic extension. AMIP, AMDMIP, and MIP 71-mer monoadducts were made as in Example 42. Extension was carried out as in Example 43 except that in this experiment, Taq I DNA polymerase, a thermostable DNA polymerase isolated from Thermus aquaticus (Stratagene, Inc., La Jolla, Calif.) was assessed for its ability to read past isopsoralens.
The reaction mixture was in 80 μl total volume and comprised 1×Taq buffer, 200 μM each of dNTP's, 0.05 units of Taq per μl of reaction volume; 1×10^−9 M in 71-mer MA; 1×10^−8 M in ^32P-labelled SK-39. Each reaction was set up with everything except Taq polymerase. The samples were initially heated to 95° C. for 5 mins, then incubated at 55° C. for 3 mins. The extension reaction was initiated by addition of Tas polymerase. At the indicated time points (0.5, 1.0, 5.0 mins), 20 μl of the reaction mix was removed to a tube containing 1 μl of 0.5 M EDTA to stop the reaction. All products were analyzed on a 20% polyacrylamide, 7 M urea gel followed by autoradiography.
This experiment investigated whether blocking of Tag polymerase by monoadducts is complete or whether monoadducts can be bypassed by the enzyme. In order to view the process of bypass syrthesis, it is necessary to cycle the extension reaction of the primer with the 71-mer templates. Cycling in this case consists of mixing the primer with the 71-mer template, adding Taq polymerase and appropriate reagents, extending, heating to induce strand separation, reannealing of the primer to the 71-mer template, extending again, and subsequent stand separation. This process can be repeated as necessary. During this process, only the complement of the 71-mer template is being synthesized. It is accumulating in a linear fashion with the number of thermal cycles (in contrast to PCR where both strands are being synthesized and accumulate geometrically).
The templates and reaction conditions were as in Example 44 above except that three samples were used for each monoadduct and each sample was tested under different conditions:
Samples (1): one sample for each monoadduct was used to carry out extension at 55° C. as in Example 43;
Samples (2): one sample for each monoadduct was used to carry out extension by the following series of steps: denaturing at 95° C.; incubating for 30 seconds at 55° C.; adding Taq polymerase for 3 minutes at 55° C.; cooling the reaction for 1 minute at 7° C.; stopping the reaction with EDTA for one minute at 95° C.
Samples (3): one sample for each monoadduct was used to carry out extension by repeating the following series of steps nine times: denaturing at 95° C.; incubating for 30 seconds at 55° C.; adding Taq polymerase for 3 minutes at 55° C.; cooling the reaction for 1 minute at 7° C. At the end, the reaction is stopped with EDTA for one minute at 95° C.
To investigate this question further, a new 5-MIP monoadducted 71-mer was prepared by repurification of the HPLC purified 5-MIP ronoadducted 15-mer by PAGE. In this way, more of the non-monoadducted 15-mer was removed prior to ligation. The purified 71-mer was then used as template in an extension experiment as described in Example 45. After 10 cycles, there was still evidence of extension product (FIG. 34).
Monoadducted 71-mer was constructed as described, but for HMT. Extension was carried out and analyzed as before on PAGE. […] Full length 71-mer is not made and a shorter strand corresponding to the position of the HMT adduct was made.

[3] = tritiated drug placed inside dialysis bag
[4] = tritiated drug placed outside dialysis bag
[5] = PAGE-repurified monoadducted 71-mer, after 10 cycles

SMILES | Ka (calf thymus DNA [1]; [3]) | Ka (calf thymus DNA [1]; [4]) | actual concentration obtained empirically (calf thymus DNA [2]) [µg/mL] | Taq polymerase extension on 71-mer monoadduct template (Taq I DNA polymerase) | Ka (DNA association constant) relative to AMDMIP (calf thymus DNA [1]) [%] | modification density relative to that provided by AMDMIP (calf thymus DNA [2]; photobinding at the same concentration) [%] | full length extension product as share of total extension products (Taq I DNA polymerase; [5]) [%] | truncated extension products as share of total (Taq I DNA polymerase; [5]) [%]
Cc1oc2ccc3c(C)cc(=O)oc3c2c1CN [AMDMIP, 4′-Aminomethyl-4,5′-dimethylisopsoralen] | 7.66 × 10^4 | 1.07 × 10^5 | 115 | stops at positions that are shorter than the full length 71-mer product | – | – | – | –
NCc1cc2occc2c2oc(=O)ccc12 [AMIP, 5-Aminomethylisopsoralen] | 2.96 × 10^4 | 2.21 × 10^4 | 105 | stops at positions that are shorter than the full length 71-mer product | 28 | 43 | – | –
Cc1cc2occc2c2oc(=O)ccc12 [MIP, 5-Methylisopsoralen] | 9.08 × 10^3 | 2.07 × 10^3 | < 10 | stops at positions that are shorter than the full length 71-mer product | – | – | 2.3 | 97.7

Reference: patent publication US6680025B2, “Device and method for photoactivation” (Cerus Corporation, priority 1989, dated 2004)
